This note sets out measurements from the supplement of paper PMC12463676, “Small-molecule dissolution of stress granules by redox modulation benefits ALS models” (Nature Chemical Biology, 2025).

Compound in one test: NC(=O)CCCCC1CCSS1 [lipoamide]
Description: thermal stability z-score vs DMSO; higher = more thermally stabilized by treatment. The settings on record: HeLa, lipoamide concentration 100 µM. As to the method:
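Cellular thermal proteome profiling in HeLa cells. Cells were treated with 100 µM lipoamide for 1 h, with or without 1 mM arsenate for a further 1 h, then heated to ten temperatures (37-66.3 °C), and soluble protein was quantified by TMT mass spectrometry relative to 0.1% DMSO controls. The thermal stability score (sum of log2 fold changes minus the abundance score) was transformed to a z-score; mean of n = 3 experiments.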

Compound in the next test: O=[As]([O-])(O)O.[K+] [potassium arsenate]
The test is described as above. The settings on record: HeLa; arsenate concentration 1 mM. As to the method: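 Cellular thermal proteome profiling in HeLa cells treated with 1 mM arsenate for 1 h (DMSO pretreatment), heated to ten temperatures (37-66.3 °C). Soluble protein was quantified by TMT mass spectrometry relative to DMSO controls; the thermal stability score was transformed to a z-score; mean of n = 3 experiments.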

[1] abbreviates: arsenate co-treatment: 1 mM arsenate 1 h.
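Note: each temperature applied for 3 min, abundance score taken as mean log2 fold change at the two lowest temperatures, z-score obtained by mean subtraction and division by SD.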

Chain of UniProt Q9NR33 (Q9NR33 whole entry): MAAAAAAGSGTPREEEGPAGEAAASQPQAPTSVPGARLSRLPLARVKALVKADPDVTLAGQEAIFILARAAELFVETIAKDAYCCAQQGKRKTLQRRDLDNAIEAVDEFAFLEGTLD
Chain of UniProt Q07864 (Q07864 whole entry): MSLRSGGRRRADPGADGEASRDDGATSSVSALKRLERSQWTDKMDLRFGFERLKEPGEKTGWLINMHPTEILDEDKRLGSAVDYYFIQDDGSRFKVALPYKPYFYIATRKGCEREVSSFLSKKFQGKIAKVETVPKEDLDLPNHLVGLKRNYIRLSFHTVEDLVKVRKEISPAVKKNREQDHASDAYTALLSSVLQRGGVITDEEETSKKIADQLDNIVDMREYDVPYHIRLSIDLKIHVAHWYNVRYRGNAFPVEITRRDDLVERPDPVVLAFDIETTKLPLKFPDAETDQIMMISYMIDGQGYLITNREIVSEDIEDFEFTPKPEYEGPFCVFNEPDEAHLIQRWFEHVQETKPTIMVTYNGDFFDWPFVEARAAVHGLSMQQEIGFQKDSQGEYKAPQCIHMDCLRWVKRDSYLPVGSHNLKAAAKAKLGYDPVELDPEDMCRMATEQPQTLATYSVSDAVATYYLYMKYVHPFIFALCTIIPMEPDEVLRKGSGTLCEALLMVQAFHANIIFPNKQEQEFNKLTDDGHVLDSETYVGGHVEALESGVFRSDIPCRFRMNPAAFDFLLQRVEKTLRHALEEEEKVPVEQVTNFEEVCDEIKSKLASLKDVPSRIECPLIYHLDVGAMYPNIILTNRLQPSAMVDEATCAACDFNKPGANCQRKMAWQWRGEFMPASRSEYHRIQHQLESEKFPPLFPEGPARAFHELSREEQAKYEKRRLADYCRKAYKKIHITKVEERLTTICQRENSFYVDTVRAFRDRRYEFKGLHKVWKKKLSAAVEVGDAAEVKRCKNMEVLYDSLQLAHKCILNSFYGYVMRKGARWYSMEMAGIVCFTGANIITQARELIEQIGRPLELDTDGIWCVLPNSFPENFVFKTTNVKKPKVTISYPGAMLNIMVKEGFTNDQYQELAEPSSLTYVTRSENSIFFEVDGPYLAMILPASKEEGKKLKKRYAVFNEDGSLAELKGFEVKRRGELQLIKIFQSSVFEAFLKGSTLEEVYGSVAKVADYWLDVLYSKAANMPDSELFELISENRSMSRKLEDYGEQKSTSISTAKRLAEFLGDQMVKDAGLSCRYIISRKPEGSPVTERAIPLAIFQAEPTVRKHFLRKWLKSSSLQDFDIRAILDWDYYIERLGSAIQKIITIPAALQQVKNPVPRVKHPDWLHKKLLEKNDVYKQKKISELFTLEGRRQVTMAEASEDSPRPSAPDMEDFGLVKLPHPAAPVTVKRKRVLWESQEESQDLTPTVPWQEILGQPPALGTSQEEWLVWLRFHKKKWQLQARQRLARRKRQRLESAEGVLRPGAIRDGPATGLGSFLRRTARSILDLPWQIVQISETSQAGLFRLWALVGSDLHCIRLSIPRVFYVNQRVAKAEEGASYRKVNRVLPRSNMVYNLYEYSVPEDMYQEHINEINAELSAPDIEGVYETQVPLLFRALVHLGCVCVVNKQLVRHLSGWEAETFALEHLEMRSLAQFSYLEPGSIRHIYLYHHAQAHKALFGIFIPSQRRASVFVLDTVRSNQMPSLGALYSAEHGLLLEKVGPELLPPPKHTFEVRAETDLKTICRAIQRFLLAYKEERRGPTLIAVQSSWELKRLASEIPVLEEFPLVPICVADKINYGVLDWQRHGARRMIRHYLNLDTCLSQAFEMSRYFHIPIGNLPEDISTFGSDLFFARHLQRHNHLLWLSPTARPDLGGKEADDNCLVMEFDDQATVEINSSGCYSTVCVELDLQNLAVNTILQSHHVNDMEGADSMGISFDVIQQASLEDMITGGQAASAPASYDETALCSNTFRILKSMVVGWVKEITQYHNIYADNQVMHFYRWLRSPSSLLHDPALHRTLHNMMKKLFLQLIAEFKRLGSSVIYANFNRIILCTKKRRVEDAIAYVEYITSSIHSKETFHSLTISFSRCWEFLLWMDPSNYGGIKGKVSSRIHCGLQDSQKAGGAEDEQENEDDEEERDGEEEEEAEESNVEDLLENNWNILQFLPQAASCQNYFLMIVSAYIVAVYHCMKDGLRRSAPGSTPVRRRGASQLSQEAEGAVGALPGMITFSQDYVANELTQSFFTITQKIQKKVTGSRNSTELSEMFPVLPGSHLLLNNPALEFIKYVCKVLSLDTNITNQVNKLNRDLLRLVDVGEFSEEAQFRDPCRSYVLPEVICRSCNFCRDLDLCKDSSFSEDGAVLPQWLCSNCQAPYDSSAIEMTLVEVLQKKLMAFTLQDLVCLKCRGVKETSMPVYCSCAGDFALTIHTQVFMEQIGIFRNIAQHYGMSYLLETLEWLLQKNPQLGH
Chain of UniProt P54098 (P54098 whole entry): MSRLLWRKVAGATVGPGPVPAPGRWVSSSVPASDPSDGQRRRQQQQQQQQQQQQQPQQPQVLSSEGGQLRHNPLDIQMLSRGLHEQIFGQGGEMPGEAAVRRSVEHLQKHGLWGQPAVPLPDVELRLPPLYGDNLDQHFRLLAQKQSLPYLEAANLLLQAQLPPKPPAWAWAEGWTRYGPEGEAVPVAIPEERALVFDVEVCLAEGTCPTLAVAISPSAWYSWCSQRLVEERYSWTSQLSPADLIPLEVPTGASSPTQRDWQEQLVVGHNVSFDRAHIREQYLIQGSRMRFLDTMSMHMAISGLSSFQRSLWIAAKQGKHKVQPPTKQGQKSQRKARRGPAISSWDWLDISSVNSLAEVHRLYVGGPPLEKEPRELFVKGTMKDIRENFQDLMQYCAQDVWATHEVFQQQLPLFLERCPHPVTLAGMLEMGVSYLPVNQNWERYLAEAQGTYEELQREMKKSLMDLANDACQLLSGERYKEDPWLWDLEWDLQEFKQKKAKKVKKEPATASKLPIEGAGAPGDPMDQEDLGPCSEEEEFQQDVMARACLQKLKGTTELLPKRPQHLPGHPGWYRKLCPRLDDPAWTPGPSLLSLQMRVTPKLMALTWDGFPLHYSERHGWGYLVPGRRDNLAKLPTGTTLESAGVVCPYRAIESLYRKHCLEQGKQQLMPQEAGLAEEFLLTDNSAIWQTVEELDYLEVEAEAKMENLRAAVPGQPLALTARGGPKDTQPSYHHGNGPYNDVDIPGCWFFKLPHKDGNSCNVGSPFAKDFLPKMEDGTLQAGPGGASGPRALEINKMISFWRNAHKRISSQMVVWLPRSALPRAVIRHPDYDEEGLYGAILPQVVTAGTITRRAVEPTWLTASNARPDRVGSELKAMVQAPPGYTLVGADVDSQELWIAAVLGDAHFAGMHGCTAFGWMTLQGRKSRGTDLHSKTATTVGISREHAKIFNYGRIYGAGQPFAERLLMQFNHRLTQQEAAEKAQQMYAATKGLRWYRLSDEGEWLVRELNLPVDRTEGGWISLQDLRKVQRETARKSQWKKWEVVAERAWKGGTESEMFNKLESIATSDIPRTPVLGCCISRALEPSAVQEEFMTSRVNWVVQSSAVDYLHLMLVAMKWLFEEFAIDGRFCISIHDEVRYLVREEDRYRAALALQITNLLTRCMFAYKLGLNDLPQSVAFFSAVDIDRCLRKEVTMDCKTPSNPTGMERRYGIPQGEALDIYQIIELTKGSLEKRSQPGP
Chain of UniProt Q9BY77 (Q9BY77 whole entry): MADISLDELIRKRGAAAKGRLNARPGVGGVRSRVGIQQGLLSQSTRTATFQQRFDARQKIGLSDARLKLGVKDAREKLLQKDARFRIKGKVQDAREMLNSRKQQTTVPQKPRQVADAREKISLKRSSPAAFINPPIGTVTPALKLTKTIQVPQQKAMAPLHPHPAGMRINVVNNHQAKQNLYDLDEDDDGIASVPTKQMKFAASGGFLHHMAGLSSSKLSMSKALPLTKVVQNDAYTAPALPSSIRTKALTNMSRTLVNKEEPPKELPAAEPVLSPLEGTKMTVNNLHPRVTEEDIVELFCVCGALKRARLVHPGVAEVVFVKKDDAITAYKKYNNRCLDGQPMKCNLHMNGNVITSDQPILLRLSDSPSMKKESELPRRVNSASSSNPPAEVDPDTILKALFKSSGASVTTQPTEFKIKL
Chain of UniProt Q9NRF9 (Q9NRF9 whole entry): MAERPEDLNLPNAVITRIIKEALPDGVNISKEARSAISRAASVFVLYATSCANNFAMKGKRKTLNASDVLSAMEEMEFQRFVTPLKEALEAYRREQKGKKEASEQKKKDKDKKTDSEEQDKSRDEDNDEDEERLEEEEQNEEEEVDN
Chain of UniProt Q15054 (Q15054 whole entry): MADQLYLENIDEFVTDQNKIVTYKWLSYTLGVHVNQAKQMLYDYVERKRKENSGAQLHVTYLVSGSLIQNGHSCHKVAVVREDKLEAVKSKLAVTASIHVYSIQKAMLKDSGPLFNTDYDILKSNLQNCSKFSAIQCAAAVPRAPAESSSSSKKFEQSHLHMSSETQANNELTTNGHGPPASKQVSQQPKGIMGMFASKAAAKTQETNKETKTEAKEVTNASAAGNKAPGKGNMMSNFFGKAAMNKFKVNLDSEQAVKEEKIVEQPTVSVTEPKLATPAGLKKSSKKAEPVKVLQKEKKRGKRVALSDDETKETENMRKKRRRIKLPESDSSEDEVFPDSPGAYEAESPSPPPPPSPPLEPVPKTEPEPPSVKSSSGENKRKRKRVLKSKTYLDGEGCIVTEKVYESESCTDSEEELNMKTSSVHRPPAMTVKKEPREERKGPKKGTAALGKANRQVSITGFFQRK
Chain of UniProt Q9Y2S7 (Q9Y2S7 whole entry): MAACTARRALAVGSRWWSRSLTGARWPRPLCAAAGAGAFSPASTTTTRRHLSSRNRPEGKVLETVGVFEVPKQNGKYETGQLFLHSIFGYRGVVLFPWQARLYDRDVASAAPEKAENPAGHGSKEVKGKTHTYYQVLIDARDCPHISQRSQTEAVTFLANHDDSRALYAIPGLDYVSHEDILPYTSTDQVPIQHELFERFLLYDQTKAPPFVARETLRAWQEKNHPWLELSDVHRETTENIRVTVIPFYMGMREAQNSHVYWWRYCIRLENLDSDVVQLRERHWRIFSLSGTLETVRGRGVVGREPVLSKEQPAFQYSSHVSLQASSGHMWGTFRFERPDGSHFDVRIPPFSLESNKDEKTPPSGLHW

As for POLD2 (UniProt P49005), the thermal stability z-score in the test with lipoamide (setting [1]) is 0.196; in the test with lipoamide (arsenate co-treatment: none) it was 0.117; with potassium arsenate, -0.0023.
Consider POLD3 (UniProt Q15054), for which the thermal stability z-score in the test with lipoamide (setting [1]) is -0.0475; in the test with lipoamide (arsenate co-treatment: none), 0.44; with potassium arsenate, -0.487.
Turning to POLDIP2 (UniProt Q9Y2S7), the thermal stability z-score was -0.119 with lipoamide (setting [1]), -0.241 with lipoamide (arsenate co-treatment: none) and 0.18 in the test with potassium arsenate.
POLDIP3 (UniProt Q9BY77): the results for the thermal stability z-score in the test with lipoamide (setting [1]), with lipoamide (arsenate co-treatment: none) and with potassium arsenate were -0.257, 0.0404 and -1.86, respectively.
POLE3 (UniProt Q9NRF9): the thermal stability z-score with lipoamide (setting [1]) is -0.405; with lipoamide (arsenate co-treatment: none), -0.285; with potassium arsenate, 0.375.
For POLE4 (UniProt Q9NR33) the same measures were 0.919, 0.928 and -1.07.
POLE (UniProt Q07864): the thermal stability z-score in the test with lipoamide (setting [1]) is -0.0751; with lipoamide (arsenate co-treatment: none), -0.113; with potassium arsenate, -0.553.
For the target POLG2 (UniProt Q9UHN1), the thermal stability z-score in the test with lipoamide (setting [1]) was 0.00241; with lipoamide (arsenate co-treatment: none), -0.266; in the test with potassium arsenate, -0.833.
In the case of POLG (UniProt P54098), the thermal stability z-score with lipoamide (setting [1]) came to 0.0493; with lipoamide (arsenate co-treatment: none) it was 0.0533; in the test with potassium arsenate, 0.0154.
With POLR1A (UniProt O95602), the thermal stability z-score with lipoamide (setting [1]) was 0.371; in the test with lipoamide (arsenate co-treatment: none) it was -0.00373; with potassium arsenate it was -2.59.
As to POLR1B (UniProt Q9H9Y6), the thermal stability z-score in the test with lipoamide (setting [1]) is 0.138; in the test with lipoamide (arsenate co-treatment: none), -0.017; in the test with potassium arsenate, -1.91.
As for POLR1C (UniProt O15160), the values for the thermal stability z-score with lipoamide (setting [1]), in the test with lipoamide (arsenate co-treatment: none) and with potassium arsenate were 0.267, 0.621 and -1.08, respectively.
Regarding POLR1D, the thermal stability z-score with lipoamide (setting [1]) was -0.0835; with lipoamide (arsenate co-treatment: none) it was -0.377; with potassium arsenate, -1.73.
Take POLR1E (UniProt Q9GZS1): the figures for the thermal stability z-score with lipoamide (setting [1]), in the test with lipoamide (arsenate co-treatment: none) and with potassium arsenate were 0.144, 0.0221 and -0.0491, respectively.
For POLR2A (UniProt P24928), the thermal stability z-score with lipoamide (setting [1]) is 0.89; with lipoamide (arsenate co-treatment: none) it was 0.82; with potassium arsenate it was -0.684.
Regarding POLR2B (UniProt P30876), the figures for the thermal stability z-score with lipoamide (setting [1]), in the test with lipoamide (arsenate co-treatment: none) and with potassium arsenate were 0.77, 0.769 and 0.205, respectively.
For POLR2C (UniProt P19387), the thermal stability z-score in the test with lipoamide (setting [1]) turned out to be 0.705; in the test with lipoamide (arsenate co-treatment: none), 1.15; with potassium arsenate it was 0.481.
For POLR2D (UniProt O15514), in that order: 1.21, 0.628 and -0.735.
In the case of POLR2E (UniProt P19388), the thermal stability z-score is 0.281 in the test with lipoamide (setting [1]), 0.459 in the test with lipoamide (arsenate co-treatment: none) and -1.34 with potassium arsenate.
Turning to POLR2G (UniProt P62487), the thermal stability z-score was 0.343 with lipoamide (setting [1]), 0.681 in the test with lipoamide (arsenate co-treatment: none) and -1.1 with potassium arsenate.
Take POLR2H (UniProt P52434): the values for the thermal stability z-score with lipoamide (setting [1]), with lipoamide (arsenate co-treatment: none) and in the test with potassium arsenate were 0.98, 1.03 and -0.373, respectively.
For POLR2I (UniProt P36954) the same measures were 1.79, 0.367 and -2.41.
Take POLR2L (UniProt P62875): the results for the thermal stability z-score with lipoamide (setting [1]), in the test with lipoamide (arsenate co-treatment: none) and in the test with potassium arsenate were 1.27, 0.782 and 0.335, respectively.
